Patent US4585773A, “Isoindolinyl-alkyl-piperazines” (Bristol-Myers Company, priority 1984, dated 1986)

Tests used:
[1] = diuretic properties compared to prazosin, acute (1-day) and chronic (5-day), conscious rats; format: in vivo, rat (female Sprague-Dawley); conditions: 3.0 mg/kg, by mouth
Procedure: In this Example the compound of Example I as the hydrochloride salt containing 3/4 mol of HCl instead of 1 mol HCl, i.e. […] Studies were conducted with conscious, 150-200 g, female Sprague-Dawley rats (Charles River Labs, Wilmington, MA) using the protocol of Hanson et al., Mineral Elect. Metab., 8: 314-324 (1982). Animals were maintained in stainless steel gang cages in temperature-controlled rooms with a 12-hour light, 12-hour dark cycle and provided Purina Rodent Lab Chow, with water ad libitum. All animals were fasted 18 hours prior to acute (first-day) dosing and water was withheld during the experiment. […] Groups of ten animals (2/cage) were studied. A controlled (non-drug) group comprised of an equal number of animals was included. Test drugs were suspended in 0.25% methocel-saline (0.9% NaCl) and administered orally by stomach intubation at the doses mentioned above. The oral fluid load volume containing the respective drug dose was uniformly maintained at 25 ml/kg; controls received in methocel-saline vehicle only. Urine was collected over a 5-hour period from rats housed in metabolism cages (2 rats per cage); one specimen consisted of the pooled sample collected from each cage. The urine volume (ml) excreted by each pair of rats was measured and electrolyte (Na, K, Cl, Ca, P) concentrations were determined with an AAII Autoanalyzer (Technicon) employing established procedures. At the end of the acute (1-day) phase, each pair of rats was returned to a separate cage (2/cage) and provided both food and water. On the following three days, each animal received its respective drug methocel-saline load via a stomach intubation. On the fifth day (after an 18-hour fast) all rats were again treated and placed in metabolism cages (2 rats/cage) for a 5-hour urine collection (chronic-effect: 5-day).

[2] = background statement; cited from earlier work
[3] = tested on: Spontaneously Hypertensive rat; conditions: Suzuki et al.; cited from earlier work
[4] = chronic administration (5-days)

SMILES | antihypertensive and diuretic activity (in words) [2] | effects in the spontaneously hypertensive rat (in words) [3] | other results
COc1ccccc1N1CCN(CCCN2Cc3cc(Cl)c(S(N)(=O)=O)cc3C2=O)CC1 [MJ15037-1A, 6-chloro-2,3-dihydro-2-[3-[4-(2-methoxyphenyl)-1-piperazinyl]propyl]-3-oxo-1H-isoindole-5-sulfonamide] |  |  | natriuretic/diuretic activity (in words) ([1]; acute treatment (1-day)): no natriuretic/diuretic activity; chlorouresis, increase over control [1, 4]: 31%; natriuresis, increase over control [1, 4]: 32%
COc1cc2nc(N3CCN(C(=O)c4ccco4)CC3)nc(N)c2cc1OC [Prazosin, prazosin] | a very active antihypertensive agent has antidiuretic activity |  | 
NS(=O)(=O)c1cc2c(cc1Cl)CN(C1CCCCC1)C2=O [chlorexolone] | diuretic and hypertensive activity | favorable effects | 
NS(=O)(=O)c1cc2c(cc1C(F)(F)F)NCNS2(=O)=O [hydroflumethiazide] |  | favorable effects | 
Nc1nc(N)c2nc(-c3ccccc3)c(N)nc2n1 [triamterene] |  | favorable effects | 
